{"source": "patent US20050025830A1", "about": "“Drug delivery device comprising an active compound and method for releasing an active compound from a drug delivery device” (Technische Universiteit Eindhoven, priority 2003, published 2005)", "key": {"[1]": {"assay": "Release of active compound from pressed polymer disc into physiological buffer in shaking bath at 20° C. and 50° C.", "format": "physicochemical", "conditions": "p(BMA-MMA) disc with 75 mol % pBMA, ibuprofen 5% (m/m)"}, "[2]": {"assay": "Concentration of ibuprofen in blood after subcutaneous implantation of disc and alternating ultrasound irradiation", "format": "in vivo", "conditions": "p(BMA-MMA) disc, ibuprofen 3% (m/m), Lewis rat", "excerpt": "A pressed circular disc of p(BMA-MMA) with ibuprofen incorporated in the matrix with a mass ratio of 3% (m/m), as described in example 1, was implanted subcutaneously in a Lewis rat. On both sides of the disc a thermocouple was implanted to continuously measure the temperature at the surface of the disc. One hour after implantation the disc was irradiated perpendicularly to the surface with a beam of ultrasonic sound with a power of 0.7 W, a frequency of 10^6 Hz (1 MHz), and a duty cycle of 70%, the probe for generating the ultrasound touching the skin of the rat. A standard physiotherapeutic hydrogel was used in between the skin and the probe. The irradiation with ultrasonic sound was applied in an alternating manner, periods of irradiation of 30 minutes being alternated with periods of 30 minutes without irradiation.\nBlood samples were taken each 10 minutes during irradiation and each 20 minutes in the periods without irradiation to determine concentration of ibuprofen in the blood stream as a function of time. After 30 minutes irradiation the concentration of ibuprofen was 0.9 μg/ml, after irradiation the plasma concentration went below 0.01 μg/ml."}, "[3]": {"assay": "Ultrasound-induced release of ibuprofen from polymer disc into physiological buffer", "format": "physicochemical", "conditions": "PLAGA 50/50 disc, ibuprofen 10% (m/m)", "procedure": "An object consisting of a pressed circular disc with a diameter of 2 cm and thickness of 2 mm was provided with a thermocouple in the middle and was then placed in a holder in a vessel containing 0.5 litre physiological buffer. […] The PLAGA was purchased from Purac Biochem, The Netherlands. The glass transition temperature of the matrix of poly(lactic acid-co-glycolic acid) used was 12.7° C. (as compared to Example 1 where a Tg of 43° C. is disclosed. This decrease of the Tg is the result of a higher loading of ibuprofen). The disc was irradiated perpendicularly to the surface with a beam of ultrasonic sound with a power of 4 W and a frequency of 10^6 Hz (1 MHz), the probe for generating the ultrasound being 28 mm away from the disc. The speed of the release of ibuprofen into the physiological buffer was determined as a function of time. Both the temperature of the buffer and the temperature in the disc were measured continuously. The irradiation with ultrasonic sound was applied in an alternating manner, periods of irradiation of 120 minutes being alternated with periods of 60 minutes without irradiation."}}, "data": [{"smiles": "CC(C)Cc1ccc(C(C)C(=O)O)cc1", "note": "(stereo not drawn) [ibuprofen]", "values": [{"measurement": "release rate of ibuprofen into the physiological buffer", "setting": "[1]; 20° C.", "result": 0.36, "unit": "nmol/h"}, {"measurement": "release rate of ibuprofen into the physiological buffer", "setting": "[1]; 50° C.", "result": 10, "unit": "nmol/h"}, {"measurement": "plasma concentration of ibuprofen", "setting": "[2]; after irradiation (period without irradiation)", "result": "below 0.01 μg/ml"}, {"measurement": "concentration at 30 min", "setting": "[2]; blood, sc, after 30 minutes irradiation (0.7 W, 1 MHz, duty cycle 70%), read-out: concentration of ibuprofen in the blood stream", "result": 0.9, "unit": "µg/mL"}, {"measurement": "release of ibuprofen after stopping the irradiation", "setting": "[3]", "result": "fell virtually immediately to the base value"}, {"measurement": "speed of release of ibuprofen from the disc", "setting": "[3]; without irradiation (base value), 8° C.", "result": "less than 1×10^−7 gram/minute"}]}]}
